Measured values: patent US10669545B2, “Tumor cell malignant transformation suppressor and anti-tumor agent” (JAPAN SCIENCE AND TECHNOLOGY AGENCY, priority 2015, dated 2020)

Legend:
Assay type in all cases: cell-based, human
A375 cells = test: Annexin V-positive cells, A375 cells; settings: UO126 10 μM or oxaliplatin 20 μM for 48 hours, compared with PLX4032 case
Experimental: The percentage of Annexin V-positive cells was measured as follows. First, FITC labeled Annexin V (manufactured by MBL, Nagoya, Japan) and Hoechst33342 were added to each cell and incubated for 40 minutes. Next, a stained state of the incubated cells was analyzed by using DAPI filter and FITC filter of an imaging cytometer, “In Cell Analyzer 2000” (manufactured by GE healthcare). Percentage (%) of […] was determined by In Cell Analyzer Workstation 3.7 (manufactured by GE healthcare). The statistical difference was determined by the Tukey's multiple comparisons of means test (**: P<0.01, *: P<0.05).
Next, the influence of knockdown of endogenous ZIC5, and PDGFD and ITGA6, which are downstream factors, on a decrease in cell proliferation by PLX4032 and induction of apoptosis was examined. […] Next, the treated cells were added to FITC labeled Annexin V (manufactured by MBL, Nagoya, Japan) and Hoechst33342 and incubated for 40 minutes. […]
(§1) The statistical difference was determined by the Tukey's multiple comparisons of means test (**: P<0.01, *: P<0.05).

[1] = tested on: phosphorylated MLC2 (ppMLC2); test: Western blotting of phosphorylated MLC2; settings: stably Zic5 gene-expressed line treated with ROCK inhibitor; not shown
Experimental: Myosin light chain 2 (MLC2) is known as an important factor for enhancing melanoma motility. It is known that MLC2 is activated through phosphorylation and enhances cell motility by enhancing actomyosin contraction (refer to NPLs 14 and 15). A protein level of phosphorylated MLC2 (ppMLC2), MLC2, and GAPDH of each cell was measured by western blotting. Western blotting was performed according to a method of Kanemaru et al. (refer to NPL 13) using anti-ppMLC2 antibody, anti-MLC2 antibody, and anti-GAPDH antibody (all manufactured by Cell Signaling).
Motility of melanoma cells in a case of siRNA-mediated knockdown of endogenous Zic5 gene was examined by performing Transwell Migration Assay. Specifically, SK-MEL-28 cells and A375 cells, which are melanoma cell lines, were transfected with siZIC5#1, siZIC5#2, siNeg#1, or siNeg#2 described in Table 2 in the same manner as Example 1. In the same manner as above, Transwell Migration Assay was performed with the cells transfected with each siRNA, and then the number of migrated cells was counted. […] The protein level of ppMLC2, MLC2, and GAPDH in the cells in which SK-MEL-28 cells were transfected with siRNA was measured by western blotting. The result of western blotting with SK-MEL-28 cells is shown at the bottom of FIG. 9.
The protein level of ppMLC2, MLC2, and GAPDH in each cell was measured by western blotting in the same manner as above.

[2] = tested on: stably Zic5 gene-expressed line (SK-MEL-28 cells); test: Transwell Migration Assay, stably Zic5 gene-expressed line; settings: treated or non-treated with ROCK inhibitor
Experimental: Specifically, the stably Zic5 gene-expressed line and the stably Flag-expressed line were seeded in a 24-well plate into which an insert with 8-μm sized pores (manufactured by BD Biosciences) was put and were cultured in RPMI 1640 medium containing 10% FBS, and then the number of migrated cells was counted.
The influence of suppressing MLC2 phosphorylation on migration ability of cells was analyzed. Specifically, Transwell Migration Assay was performed in the same manner as above with the stably Zic5 gene-expressed line and the stably Flag-expressed line in a state of being treated or non-treated with a ROCK inhibitor (Y27632), and then the number of migrated cells was counted.
The number of migrated cells was normalized to a total number of viable cells. A relative cell number (n=3) in which the number of migrated cells transfected with siNeg#1 of each cell was set to 1 is shown in FIG. 29. The statistical difference was determined by the Tukey's multiple comparisons of means test (**: P<0.01, *: P<0.05).

ZIC5 = test: Western blotting of ZIC5; settings: A375 cells; 24 hours; FAK inhibitor I 0-5 μM, WP1066 0-4 μM, IL-6 0-20 ng/mL
Experimental: The expression level of PDGFD gene and Zic5 gene in the obtained cells was measured by western blotting using GAPDH as an internal control. Western blotting was performed according to a method of Kanemaru et al. (refer to NPL 13) using anti-ZIC5 antibody (manufactured by Aviva systems biology), anti-PDGFD antibody (manufactured by Santa Cruz), and anti-GAPDH antibody (manufactured by Cell Signaling).
(§2) A375 cells were treated in a medium in which a concentration of a FAK inhibitor I (manufactured by Calbiochem) was 0, 1, 2.5, or 5 μM for 24 hours, and the level of ZIC5, pro-PDGFD, pERK, and β-actin was measured by western blotting. Western blotting was performed in the same manner as above except that anti-ZIC5 antibody (manufactured by Aviva systems biology), anti-PDGFD antibody (manufactured by Santa Cruz), anti-pERK antibody (manufactured by Cell Signaling), and anti-β-actin antibody (manufactured by Sigma) were used.
A375 cells were treated in a medium in which a concentration of the Stat3 inhibitor, WP1066 (manufactured by Santa Cruz, Dallas, Tex.) was 0, 1, 1.5, 2, 2.5, 3, or 4 μM for 24 hours, and then western blotting was performed to assess the level of ZIC5, pro-PDGFD, pSTAT3, STAT3, and GAPDH. […]

total STAT3 (STAT3) = test: Western blotting of total STAT3; settings: A375 cells; 24 hours; WP1066 0-4 μM, IL-6 0-20 ng/mL
Experimental: (§3) A375 cells were treated in a medium in which a concentration of the Stat3 inhibitor, WP1066 (manufactured by Santa Cruz, Dallas, Tex.) was 0, 1, 1.5, 2, 2.5, 3, or 4 μM for 24 hours, and then western blotting was performed to assess the level of ZIC5, pro-PDGFD, pSTAT3, STAT3, and GAPDH. Western blotting was performed in the same manner as above except that anti-ZIC5 antibody (manufactured by Aviva systems biology), anti-PDGFD antibody (manufactured by Santa Cruz), anti-pSTAT3 antibody (manufactured by Cell Signaling), STAT3 antibody (manufactured by BD Biosciences), and anti-GAPDH antibody (manufactured by Cell Signaling) were used.
as §3, with “Interleukin-6 (IL-6)” for “the Stat3 inhibitor, WP1066”, “Novus Biologicals)” for “Santa Cruz, Dallas, Tex.)”, “10,” for “1, 1.5, 2, 2.5, 3,”, “20 ng/mL” for “4 μM”, “anti-pERK” for “anti-PDGFD”, “Cell Signaling),” for “Santa Cruz),”

[3] = tested on: phosphorylated ERK1/2 (Thr202/204) (pERK); test: Western blotting of phosphorylated ERK1/2; settings: A375 cells; 24 hours; FAK inhibitor I 0-5 μM, IL-6 0-20 ng/mL
Experimental: Western blotting was performed in the same manner as above except that anti-pAKT antibody (manufactured by Cell Signaling), anti-AKT antibody (manufactured by Cell Signaling), anti-pERK antibody (manufactured by Cell Signaling), anti-ERK antibody (manufactured by Cell Signaling), and anti-β-actin antibody (manufactured by Sigma) were used.
vemR-1 to 3 cells and HT144 cells were treated with DMSO or PLX4032 solution (which was dissolved in DMSO to become 5 μM) for 48 hours, and the level of pAKT, AKT, pERK, ERK, and β-actin of these cells was assessed by western blotting in the same manner as Example 8.
as §2
A375 cells were treated in a medium in which a concentration of Interleukin-6 (IL-6) (manufactured by Novus Biologicals) was 0, 10, or 20 ng/mL for 24 hours, and then western blotting was performed to assess the level of ZIC5, pro-PDGFD, pSTAT3, STAT3, and GAPDH. […]

[4] = tested on: phosphorylated Stat3 (pStat3); test: Western blotting of phosphorylated Stat3; settings: A375 cells; 24 hours; WP1066 0-4 μM, IL-6 0-20 ng/mL
Experimental: as §3
as §3, with “Interleukin-6 (IL-6)” for “the Stat3 inhibitor, WP1066”, “Novus Biologicals)” for “Santa Cruz, Dallas, Tex.)”, “10,” for “1, 1.5, 2, 2.5, 3,”, “20 ng/mL” for “4 μM”, “anti-pERK” for “anti-PDGFD”, “Cell Signaling),” for “Santa Cruz),”

pro-PDGFD = test: Western blotting of pro-PDGFD; settings: A375 cells; 24 hours; FAK inhibitor I 0-5 μM, WP1066 0-4 μM
Source text: Because phosphorylation of focal adhesion kinase (FAK), which is activated at Focal adhesion, has been associated with melanoma malignancy (refer to NPL 19), FAK change by ZIC5 was examined. Furthermore, focusing on Integrin, alpha 6 (ITGA6) and platelet-derived growth factor D (PDGFD) among the Focal adhesion-related genes in the altered genes by Zic5 knockdown, change in cells was examined. Specifically, a level of phosphorylated FAK (pFAK), total FAK (FAK), ITGA6, pro-PDGFD, and β-actin in A375 cells transfected with siZIC5 or siNeg was assessed by western blotting. Western blotting was performed in the same manner as above except that anti-pFAK antibody (manufactured by Signalway Antibody), anti-FAK antibody (manufactured by Acris), anti-β-actin antibody (manufactured by Sigma), anti-ITGA6 antibody (manufactured by GeneTex), and anti-PDGFD antibody (manufactured by Santa Cruz) were used.
The expression level of PDGFD gene and Zic5 gene in the obtained cells was measured by western blotting using GAPDH as an internal control. […]
A375 cells were treated in a medium in which a concentration of a FAK inhibitor I (manufactured by Calbiochem) was 0, 1, 2.5, or 5 μM for 24 hours, and the level of ZIC5, pro-PDGFD, pERK, and β-actin was measured by western blotting. […]

[5] = tested on: stably Zic5 gene-expressed line (SK-MEL-28 cells); test: Annexin V-positive cells, stably Zic5 gene-expressed line; settings: WP1066 10 μM for 24 hours; not shown
Experimental: PLX4032 was dissolved in DMSO to be used as a solution, and a line added to an equal amount of DMSO (DMSO treatment) was used as a control. The result of a relative cell number (n=3) in which the number of cells of the cells in which the stably Flag-expressed line was treated with PLX4032 (in the drawing, “+” on the “PLX4032” section, the same applies to the following examples), or the cells treated with DMSO (in the drawing, “−” on the “PLX4032” section, the same applies to the following examples) was set to 1 is shown in FIG. 30. The statistical difference was determined by the Tukey's multiple comparisons of means test (**: P<0.01, *: P<0.05). […]
The percentage of Annexin V-positive cells was measured as follows. […] Next, a stained state of the incubated cells was analyzed by using DAPI filter and FITC filter of an imaging cytometer, “In Cell Analyzer 2000” (manufactured by GE healthcare). Percentage (%) of […] was determined by In Cell Analyzer Workstation 3.7 (manufactured by GE healthcare). The statistical difference was determined by the Tukey's multiple comparisons of means test (**: P<0.01, *: P<0.05).
as §1

Compound | percentage of Annexin V-positive cells, drug treatment of siZIC5- vs siNeg-transfected cells (A375 cells) | expression level of ZIC5 (ZIC5) | level of STAT3 (total STAT3 (STAT3)) | expression level of pSTAT3 [4] | further results
O=C1[O][Pt]2([NH][C@@H]3CCCC[C@H]3[NH]2)[O]C1=O [oxaliplatin] | the same results were obtained | – | – | – | –
N#CC(=C(/N)Sc1ccccc1N)/C(C#N)=C(/N)Sc1ccccc1N [UO126] | the same results were obtained | – | – | – | –
C[C@@H](N)[C@H]1CC[C@H](C(=O)Nc2ccncc2)CC1 [Y27632, reference compound] | – | – | – | – | band of ppMLC2 [1]: hardly detected; increase of migrated cells by Zic5 gene overexpression [2]: partially suppressed
IL-6: Interleukin-6 (manufactured by Novus Biologicals) | – | increased in accordance with a concentration of the IL-6 | not changed | increased in accordance with a concentration of the IL-6 | level of pERK [3]: not changed
C[C@H](NC(=O)/C(C#N)=C/c1cccc(Br)n1)c1ccccc1 [WP1066, reference compound] | – | decreased in accordance with a concentration of the Stat3 inhibitor | not changed | decreased in accordance with a concentration of the Stat3 inhibitor | expression level of pro-PDGFD (pro-PDGFD): decreased in accordance with a concentration of the Stat3 inhibitor; suppression of apoptosis by Zic5 [5]: completely suppressed
